Converted amounts (≈) assume the structure as drawn.
What was measured:
[1] = tested on: Pseudomonas aeruginosa; experiment: Antimicrobial activity against wild type Pseudomonas aeruginosa PA01 after 16 to 20 hrs by 2-fold microbroth dilution method; type: functional
[2] = target: T1, UDP-3-O-acyl-N-acetylglucosamine deacetylase (Pseudomonas aeruginosa (strain ATCC 15692 / PAO1 / 1C / PRS 101 / LMG12228), UniProt P47205); experiment: Inhibition of Pseudomonas aeruginosa LpxC expressed in Escherichia coli using UDP-3-O-N-acetylglucosamine substrate measured after 30 mins by mass spectrometry
T1 sequence (P47205 whole entry): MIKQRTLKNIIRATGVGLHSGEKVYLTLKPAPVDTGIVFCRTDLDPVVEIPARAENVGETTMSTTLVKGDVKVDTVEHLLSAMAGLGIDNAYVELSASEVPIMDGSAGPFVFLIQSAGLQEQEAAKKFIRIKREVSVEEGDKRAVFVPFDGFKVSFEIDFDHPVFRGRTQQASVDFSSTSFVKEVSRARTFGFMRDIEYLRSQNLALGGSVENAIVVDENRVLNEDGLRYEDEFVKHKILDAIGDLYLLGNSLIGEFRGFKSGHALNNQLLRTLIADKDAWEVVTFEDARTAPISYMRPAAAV

[3] = tested on: Pseudomonas aeruginosa; experiment: Antimicrobial activity against Pseudomonas aeruginosa PA3919 with (delta(mexAB-OprM)delta(mexXY)delta(MexZ) phenotype after 16 to 20 hrs by 2-fold microbroth dilution method; type: functional
[4] = tested on: Pseudomonas aeruginosa; experiment: microbe, parasite or virus in culture
Description: Antimicrobial activity against Pseudomonas aeruginosa after 16 to 20 hrs by 2-fold microbroth dilution method

[5] = tested on: Klebsiella pneumoniae; experiment: microbe, parasite or virus in culture
Description: Antimicrobial activity against Klebsiella pneumoniae after 16 to 20 hrs by 2-fold microbroth dilution method

[6] = tested on: Klebsiella aerogenes; experiment: microbe, parasite or virus in culture
Description: Antimicrobial activity against Enterobacter aerogenes after 16 to 20 hrs by 2-fold microbroth dilution method

[7] = tested on: Escherichia coli; experiment: microbe, parasite or virus in culture
Description: Antimicrobial activity against Escherichia coli after 16 to 20 hrs by 2-fold microbroth dilution method

[8] = tested on: Acinetobacter sp.; experiment: Antimicrobial activity against Acinetobacter sp. after 16 to 20 hrs by 2-fold microbroth dilution method; type: functional
[9] = tested on: Citrobacter freundii; experiment: microbe, parasite or virus in culture
Description: Antimicrobial activity against Citrobacter freundii after 16 to 20 hrs by 2-fold microbroth dilution method

Structure (SMILES) | MIC [1] [µg/mL] | IC50 [2] [nM] | MIC [3] [µg/mL] | MIC90 [4] [µg/mL] | MIC90 [5] [µg/mL] | MIC90 [6] [µg/mL] | MIC90 [7] [µg/mL] | MIC90 [8] [µg/mL] | MIC90 [9] [µg/mL]
C[C@@](CCn1ccc(-c2ccncc2)cc1=O)(C(=O)NO)S(C)(=O)=O | 32 (≈ 87.6 µM) | 39 | 0.5 (≈ 1.37 µM) | – | – | – | – | – | –
CC(CCn1ccc(C2CCCCC2)cc1=O)(C(=O)NO)S(C)(=O)=O (racemic) | 2 (≈ 5.4 µM) | 11 | 0.06 (≈ 0.162 µM) | – | – | – | – | – | –
CC(CCc1ccc(-c2ccccc2)nc1O)(C(=O)NO)S(C)(=O)=O (racemic) | 32 (≈ 87.8 µM) | 53 | 1 (≈ 2.74 µM) | – | – | – | – | – | –
O=C(O)c1cn(C2CC2)c2cc(N3CCNCC3)c(F)cc2c1=O [CIPROFLOXACIN] | – | – | – | 64 (≈ 193 µM) | 64 (≈ 193 µM) | 1 (≈ 3.02 µM) | > 64 | 64 (≈ 193 µM) | 32 (≈ 96.6 µM)
C[C@@](CCn1ccc(-c2ccc(F)c(F)c2F)cc1=O)(C(=O)NO)S(C)(=O)=O | 0.25 (≈ 0.598 µM) | 1.5 | 0.015 (≈ 0.0359 µM) | 1 (≈ 2.39 µM) | 2 (≈ 4.78 µM) | 1 (≈ 2.39 µM) | 0.5 (≈ 1.2 µM) | > 64 | 0.5 (≈ 1.2 µM)
CC(C)(C)c1ccn(CC[C@](C)(C(=O)NO)S(C)(=O)=O)c(=O)c1 | 8 (≈ 23.2 µM) | 69 | 0.25 (≈ 0.726 µM) | – | – | – | – | – | –
CC(CCc1ccc(-c2ccccc2)cn1)(C(=O)NO)S(C)(=O)=O (racemic) | 4 (≈ 11.5 µM) | 13 | 0.125 (≈ 0.359 µM) | – | – | – | – | – | –
Cc1cn(CC[C@](C)(C(=O)NO)S(C)(=O)=O)c(=O)cc1-c1ccccc1 | 8 (≈ 21.1 µM) | 30 | 0.125 (≈ 0.33 µM) | – | – | – | – | – | –
C[C@@](CCn1ccc(-c2cc(F)ccc2F)cc1=O)(C(=O)NO)S(C)(=O)=O | 1 (≈ 2.5 µM) | 4.4 | 0.03 (≈ 0.0749 µM) | – | – | – | – | – | –
C[C@@](CCn1ccc(-c2ccc(-c3ccon3)cc2)cc1=O)(C(=O)NO)S(C)(=O)=O | 0.25 (≈ 0.579 µM) | 1.1 | 0.015 (≈ 0.0348 µM) | – | – | – | – | – | –
C[C@@](CCn1cnc(-c2ccccc2)cc1=O)(C(=O)NO)S(C)(=O)=O | 1 (≈ 2.74 µM) | 8.5 | 0.03 (≈ 0.0821 µM) | 4 (≈ 10.9 µM) | 16 (≈ 43.8 µM) | 16 (≈ 43.8 µM) | 8 (≈ 21.9 µM) | 64 (≈ 175 µM) | 16 (≈ 43.8 µM)
C[C@@](CCn1ncc(-c2ccccc2)cc1=O)(C(=O)NO)S(C)(=O)=O | 32 (≈ 87.6 µM) | > 72 | 1 (≈ 2.74 µM) | – | – | – | – | – | –
C[C@@](CCn1ccc(-c2c(F)cccc2F)cc1=O)(C(=O)NO)S(C)(=O)=O | 0.5 (≈ 1.25 µM) | 4.8 | 0.03 (≈ 0.0749 µM) | – | – | – | – | – | –
Cc1cccc(C)c1-c1ccn(CC[C@](C)(C(=O)NO)S(C)(=O)=O)c(=O)c1 | 64 (≈ 163 µM) | > 87 | 2 (≈ 5.1 µM) | – | – | – | – | – | –
C[C@@](CCn1ccc(C#Cc2ccccc2)cc1=O)(C(=O)NO)S(C)(=O)=O | 0.25 (≈ 0.644 µM) | 1.8 | 0.015 (≈ 0.0386 µM) | 2 (≈ 5.15 µM) | 0.5 (≈ 1.29 µM) | 0.25 (≈ 0.644 µM) | 0.06 (≈ 0.154 µM) | > 64 | 0.125 (≈ 0.322 µM)
Cc1cc(C)cc(-c2ccn(CC[C@](C)(C(=O)NO)S(C)(=O)=O)c(=O)c2)c1 | 2 (≈ 5.1 µM) | 5.3 | 0.125 (≈ 0.318 µM) | – | – | – | – | – | –
C[C@@](CCn1ccc(-c2cccnc2)cc1=O)(C(=O)NO)S(C)(=O)=O | > 64 | > 100 | 2 (≈ 5.47 µM) | – | – | – | – | – | –
C[C@@](CCn1ccc(/C=C/c2ccccc2)cc1=O)(C(=O)NO)S(C)(=O)=O | 0.5 (≈ 1.28 µM) | 3.2 | 0.03 (≈ 0.0768 µM) | – | – | – | – | – | –
COc1ccccc1-c1ccn(CC[C@](C)(C(=O)NO)S(C)(=O)=O)c(=O)c1 | 4 (≈ 10.1 µM) | 12 | 0.125 (≈ 0.317 µM) | – | – | – | – | – | –
C[C@H]1[C@H](NC(=O)/C(=N\OC(C)(C)C(=O)O)c2csc(N)n2)C(=O)N1S(=O)(=O)O [AZTREONAM] | – | – | – | 64 (≈ 147 µM) | > 64 | 32 (≈ 73.5 µM) | > 64 | 32 (≈ 73.5 µM) | > 64
C[C@@](CCn1ccc(-c2ccc(-c3ccncc3)cc2)cc1=O)(C(=O)NO)S(C)(=O)=O | 0.5 (≈ 1.13 µM) | 1.2 | 0.03 (≈ 0.0679 µM) | – | – | – | – | – | –
C[C@@](CCn1ccc(-c2ccccc2F)cc1=O)(C(=O)NO)S(C)(=O)=O | 0.25 (≈ 0.654 µM) | 2.2 | 0.015 (≈ 0.0392 µM) | – | – | – | – | – | –
COc1cccc(-c2ccn(CC[C@](C)(C(=O)NO)S(C)(=O)=O)c(=O)c2)c1F | 0.5 (≈ 1.21 µM) | 1.8 | 0.015 (≈ 0.0364 µM) | – | – | – | – | – | –
CC(CCc1ccc(-c2ccccc2)nc1)(C(=O)NO)S(C)(=O)=O (racemic) | 8 (≈ 23 µM) | 49 | 0.25 (≈ 0.718 µM) | – | – | – | – | – | –

Reference: ChEMBL document CHEMBL2021790, “Pyridone methylsulfone hydroxamate LpxC inhibitors for the treatment of serious gram-negative infections” (J Med Chem, 2012)
